Assay results reported in ChEMBL document CHEMBL5143711, “Glenthmycins A-M: Macrocyclic Spirotetronate Polyketide Antibacterials from the Australian Pasture Plant-Derived Streptomyces sp. CMB-PB041” (J Nat Prod, 2022).

Columns and labels:
[1] = Cytotoxicity against human NCI-H460 cells and measured after 48 hrs by MTT assay; format: toxicity, cell-based
[2] = Cytotoxicity against human SW-620 cells and measured after 48 hrs by MTT assay; format: toxicity, cell-based
[3] = tested on: Candida albicans; assay: Antifungal activity against Candida albicans ATCC 10231 incubated for 16 to 24 hrs by broth microdilution based spectrophotometric analysis; format: functional, organism-based
[4] = tested on: Escherichia coli; assay: Antibacterial activity against Escherichia coli ATCC 11775 incubated for 16 to 24 hrs by broth microdilution based spectrophotometric analysis; format: functional, organism-based
[5] = tested on: Mycobacterium tuberculosis; assay: Antibacterial activity against Mycobacterium tuberculosis H37Ra ATCC 25177 incubated for 16 to 24 hrs by broth microdilution based spectrophotometric analysis; format: functional, organism-based
[6] = tested on: Staphylococcus aureus; assay: Antibacterial activity against Staphylococcus aureus ATCC 25923 incubated for 16 to 24 hrs by broth microdilution based spectrophotometric analysis; format: functional, organism-based
[7] = tested on: Enterococcus faecalis; assay: Antibacterial activity against Enterococcus faecalis incubated for 16 to 24 hrs by broth microdilution based spectrophotometric analysis; format: functional, organism-based
[8] = tested on: Staphylococcus aureus; assay: Antibacterial activity against methicillin-resistant Staphylococcus aureus ATCC 43300 incubated for 16 to 24 hrs by broth microdilution based spectrophotometric analysis; format: functional, organism-based
[9] = tested on: Staphylococcus aureus; assay: Antibacterial activity against methicillin-resistant Staphylococcus aureus ATCC 33591 incubated for 16 to 24 hrs by broth microdilution based spectrophotometric analysis; format: functional, organism-based
[10] = tested on: Enterococcus faecium; assay: Antibacterial activity against vancomycin-resistant Enterococcus faecium incubated for 16 to 24 hrs by broth microdilution based spectrophotometric analysis; format: functional, organism-based
[11] = tested on: Staphylococcus aureus; assay: Antibacterial activity against Staphylococcus aureus ATCC 25923 incubated for 16 to 24 hrs in presence of rifampin by broth microdilution based spectrophotometric analysis; format: functional, organism-based
[12] = tested on: Enterococcus faecalis; assay: Antibacterial activity against Enterococcus faecalis incubated for 16 to 24 hrs in presence of rifampicin by broth microdilution based spectrophotometric analysis; format: functional, organism-based
[13] = tested on: Staphylococcus aureus; assay: Antibacterial activity against Staphylococcus aureus ATCC 25923 incubated for 16 to 24 hrs in presence of ampicillin by broth microdilution based spectrophotometric analysis; format: functional, organism-based
[14] = tested on: Enterococcus faecalis; assay: Antibacterial activity against Enterococcus faecalis incubated for 16 to 24 hrs in presence of ampicillin by broth microdilution based spectrophotometric analysis; format: functional, organism-based

`COc1cc(C)c(C(=O)O[C@H]2[C@H](O[C@H]3CC[C@H](C)[C@@H]4[C@@H]3C=C(C)[C@H]3/C(C)=C/CC/C(C)=C/[C@]5(C)C=C(C(=O)O)[C@H](C)C[C@]56OC(=O)C(=C6O)C(=O)[C@@]43C)O[C@H](C)[C@@H](O)[C@H]2O)c(O)c1` showed an IC50 at 48 h [1] of over 30 µM, an IC50 at 48 h [2] of over 30 µM and an IC50 [3] of over 30 µM. It also gave an IC50 [4] of over 30 µM, an IC50 [5] of over 30 µM and an IC50 [6] of 10 µM. For the same compound, the IC50 [7] was 13 µM, the IC50 [8] was 15.2 µM and the IC50 [9] was 10.2 µM. It also gave an IC50 [10] of 7.3 µM.

For `CC(=O)O[C@H]1CC[C@H](C)[C@@H]2[C@@H]1C=C(C)[C@H]1/C(C)=C/CC/C(C)=C/[C@]3(C)C=C(C)[C@H](C)C[C@]34OC(=O)C(=C4O)C(=O)[C@@]21C`, the IC50 at 48 h [1] was over 30 µM, the IC50 at 48 h [2] was over 30 µM and the IC50 [3] was over 30 µM. For the same compound, the IC50 [4] was over 30 µM, the IC50 [5] was over 30 µM and the IC50 [6] was 1.2 µM. The IC50 [7] was 3.7 µM, the IC50 [8] was 1.1 µM and the IC50 [9] was 0.9 µM. The IC50 [10] was 10 µM.

In the case of `CC1=C[C@@]2(C)/C=C(\C)CC/C=C(\C)[C@@H]3C(C)=C[C@H]4[C@@H]([C@@H](C)CC[C@@H]4O)[C@]3(C)C(=O)C3=C(O)[C@@]2(C[C@H]1C)OC3=O`, the IC50 at 48 h [1] is reported as over 30 µM, the IC50 at 48 h [2] is reported as over 30 µM and the IC50 [3] is reported as over 30 µM. The IC50 [4] was over 30 µM, the IC50 [5] was over 30 µM and the IC50 [6] was 16.4 µM. The IC50 [7] was over 30 µM, the IC50 [8] was 3.8 µM and the IC50 [9] was 8.4 µM. For the same compound, the IC50 [10] was over 30 µM.

Compound `COc1cc(C)c(C(=O)O[C@H]2[C@H](O[C@H]3CC[C@H](C)[C@@H]4[C@@H]3C=C(C)[C@H]3/C(C)=C/CC/C(C)=C/[C@@H]5C=C(C(=O)O)[C@H](C)C[C@]56OC(=O)C(=C6O)C(=O)[C@@]43C)O[C@H](C)[C@@H](O)[C@H]2O)c(O)c1` has an IC50 at 48 h [1] of over 30 µM, an IC50 at 48 h [2] of over 30 µM and an IC50 [3] of over 30 µM. For the same compound, the IC50 [4] was over 30 µM, the IC50 [5] was over 30 µM and the IC50 [6] was 18.4 µM. It also gave an IC50 [7] of 2.7 µM, an IC50 [8] of 16.3 µM and an IC50 [9] of 8.6 µM. For the same compound, the IC50 [10] was 2.9 µM.

For `CC(=O)O[C@H]1CC[C@H](C)[C@@H]2[C@@H]1C=C(C)[C@H]1/C(C)=C/CC/C(C)=C/[C@@H]3C=C(C)[C@H](C)C[C@]34OC(=O)C(=C4O)C(=O)[C@@]21C`, the IC50 at 48 h [1] was over 30 µM, the IC50 at 48 h [2] was over 30 µM and the IC50 [3] was over 30 µM. The IC50 [4] was over 30 µM, the IC50 [5] was over 30 µM and the IC50 [6] was 0.8 µM. It also gave an IC50 [7] of 3 µM, an IC50 [8] of 0.3 µM and an IC50 [9] of 6.8 µM. For the same compound, the IC50 [10] was 6.7 µM.

Work on `CC1(C)S[C@@H]2[C@H](NC(=O)[C@H](N)c3ccccc3)C(=O)N2[C@H]1C(=O)O` [AMPICILLIN] yielded an IC50 [11] of under 10 µM and an IC50 [12] of under 10 µM.

Work on `CO[C@H]1/C=C/O[C@@]2(C)Oc3c(C)c(O)c4c(O)c(c(/C=N/N5CCN(C)CC5)c(O)c4c3C2=O)NC(=O)/C(C)=C\C=C\[C@H](C)[C@H](O)[C@@H](C)[C@@H](O)[C@@H](C)[C@H](OC(C)=O)[C@@H]1C` [RIFAMPIN] yielded an IC50 [13] of under 10 µM and an IC50 [14] of under 10 µM.
